The text below walks through data of PubChem BioAssay AID687000 (Broad Institute, 2013).

Where “and” joins values, the source holds several entries; their conditions need not be identical. Equal values may be shown once. Calls of active or inactive are those of the source.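 The calls were made as follows: active = fitted dose curve reaches 40% lysis signal rise at or below the highest valid concentration tested for that sample; inconclusive = flat fit between 30% and 70%, or poor curve fit; inactive = signal falls, stays flat within 30%, or no crossing.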

The subject of this experiment is C. neoformans lysis, adenylate kinase release luminescence, 4 h. The experiment in a line: C. neoformans lysis by adenylate kinase leakage – AK release luminescence, cherry-picks, dose response (AID 687000).
Consider `COC(=O)C1=C(C)N(CC(C)C)C(=S)NC1c1ccc(-c2ccccc2)cc1` (stereo unspecified), for which the AC40 is > 15 µM (inactive) and 1.4 µM.

As to `C[C@@H]1CN([C@@H](C)CO)C(=O)c2cc(NC(=O)C3CC3)ccc2O[C@H]1CN(C)CC1CCCCC1`, the AC40 was > 15 µM (inactive). As to `CC(C)NC(=O)N[C@H]1CC[C@@H](CCNC(=O)C2CC2)O[C@H]1CO`, the AC40 was > 15 µM (inactive). Turning to `COc1ccc(CNC(=S)NCc2ccc(OC)cc2)cc1`, the AC40 was > 15 µM (inactive). Regarding `CCCOc1ccc(CNC(=S)NCc2ccc(OC(C)C)cc2)cc1`, the AC40 is 14.3 µM. `CC(C)C#Cc1ccc([C@@H]2[C@H](CO)N3CCCCN(C(=O)c4ccc5c(c4)OCO5)C[C@@H]23)cc1`: the AC40 was > 15 µM (inactive). For `COCC(=O)NC[C@H]1N[C@H](CO)[C@H]1c1ccc(C2=CCCC2)cc1`, the AC40 was > 15 µM (inactive). Turning to `O=C(NC(=S)Nc1ccc(Br)cc1)C1CCC1`, the AC40 was 1.05 µM. Take `O=C(CC1CC1)N1[C@@H]2CN(S(=O)(=O)c3ccccc3)c3ccccc3[C@@H]2[C@@H]1CO`: the AC40 was > 16 µM (inactive). Consider `CCN1C(=S)N[C@@H](c2ccccc2)C(C(=O)OC)=C1C`, for which the AC40 is > 15 µM (inactive). The value for `COc1cc2c(C(=O)N(C)c3cc(Cl)ccc3OC)cn(C)c(=O)c2cc1OC` was > 15 µM (inactive). On to `COC(=O)C1=C(C)N(Cc2ccc(Cl)cc2)C(=S)NC1c1cccc(F)c1` (stereo unspecified), for which the AC40 is 13.1 µM. In the case of `Cc1cc(Cl)ccc1NC(=S)NCc1ccc(F)cc1`, the AC40 is 2.25 µM. The value for `CNC[C@@H]1OCCCC[C@@H](C)Oc2ccc(NS(=O)(=O)c3ccc(Cl)cc3)cc2C(=O)N([C@H](C)CO)C[C@H]1C` was > 15 µM (inactive). In the case of `C[C@@H]1CN([C@H](C)CO)S(=O)(=O)c2ccc(C#CC3CC3)cc2O[C@H]1CN(C)CC1CCOCC1`, the AC40 is > 15 µM (inactive). Turning to `C[C@H]1CN([C@@H](C)CO)C(=O)c2cc(NC(=O)Nc3ccc(F)cc3)ccc2O[C@@H]1CN(C)S(C)(=O)=O`, the AC40 was > 15 µM (inactive). The same measure for `Cc1cccc(-c2ccc([C@H]3[C@H](CO)N4CCCCN(C(=O)c5ccc6c(c5)OCO6)C[C@@H]34)cc2)c1`: > 15 µM (inactive). For the compound `Cc1noc(C)c1S(=O)(=O)Nc1ccc2c(c1)C(=O)N([C@@H](C)CO)C[C@@H](C)[C@@H](CN(C)Cc1ccccc1)OCCCC[C@H](C)O2`, the AC40 is > 15 µM (inactive). `S=C(Nc1ccccc1Oc1ccccc1)Nc1cccc(Cl)c1Cl`: the AC40 was > 15 µM (inactive). As for `CCc1ccc(C(C)NC(=S)NCc2ccc(F)cc2)cc1` (stereo unspecified), the AC40 is 0.511 µM. Consider `CO[C@@H]1CN(C)C(=O)c2cc(NS(=O)(=O)c3cccc(C)c3)ccc2OC[C@@H](C)NC[C@H]1C`, for which the AC40 is > 15 µM (inactive). As to `COC(=O)C1=C(C)N(Cc2ccccc2)C(=S)NC1c1ccc(Br)cc1` (stereo unspecified), the AC40 is 2.58 µM. Turning to `Cc1ccccc1NC(=O)C(=O)NCCCN1CCCC1=O`, the AC40 is > 15 µM (inactive). For the compound `O=C(NCCc1ccccc1)[C@@H]1[C@@H](CO)[C@@H]2Cn3c(cccc3=O)[C@H]1N2C(=O)C1CCC1`, the AC40 is > 7.5 µM (inactive). Regarding `Cc1ccc(C(=O)NC(=S)Nc2ccc(N3CCOCC3)cc2)cc1`, the AC40 was 11.9 µM. On to `C[C@H]1CN([C@@H](C)CO)C(=O)c2cccc(NS(=O)(=O)c3ccc(Cl)cc3)c2O[C@@H]1CN(C)CC1CC1`, for which the AC40 was 3.75 µM.

Take `COc1ccc(C(=O)NC(=S)Nc2ccccc2N2CCOCC2)cc1[N+](=O)[O-]`: the AC40 was > 15 µM (inactive). As for `Cc1ccc(C)c(NC(=O)C2(C)CCCN2C(=O)C(C)C)c1` (stereo unspecified), the AC40 was 7.4 µM.

Regarding `CCCC(=O)Nc1ccc2c(c1)C(=O)N(C)C[C@H](OC)[C@@H](C)CN(C(=O)c1cccnc1)[C@@H](C)CO2`, the AC40 is > 15 µM (inactive). For `COC(=O)C1=C(C)N(Cc2ccc(Br)cc2)C(=S)NC1c1ccc(OC)cc1` (stereo unspecified), the AC40 was 1.93 µM and 1.57 µM. As to `CCOC(=O)NC(=S)Nc1ccc(C(C)(C)C)cc1Br`, the AC40 was 3.16 µM.

Consider `O=C(C1CCOCC1)N1CC[C@@H]2[C@@H](CO)Nc3ccc(Br)cc3[C@@H]21`, for which the AC40 was > 15 µM (inactive).

On to `COC(=O)C1=C(C)N(Cc2ccc(Cl)cc2)C(=S)NC1c1cccc(Cl)c1` (stereo unspecified), for which the AC40 is 2.95 µM.

With `COC(=O)C1=C(C)N(Cc2ccc(Cl)cc2)C(=S)NC1c1cccc(OC)c1` (stereo unspecified), the AC40 is 3.04 µM. The same measure for `COC(=O)C1=C(C)N(Cc2ccccc2)C(=S)NC1c1cccc(OC)c1` (stereo unspecified): > 15 µM (inactive) and > 16 µM (inactive). For the compound `COC(=O)C1=C(C)N(Cc2ccc(Cl)cc2)C(=S)NC1c1ccc(Br)cc1` (stereo unspecified), the AC40 is 0.781 µM. In the case of `C[C@H]1CN([C@@H](C)CO)C(=O)Cc2cc(N(C)C)ccc2O[C@@H]1CN(C)C(=O)Nc1ccc(C(F)(F)F)cc1`, the AC40 was > 15 µM (inactive). In the case of `COc1ccccc1CNC(=S)NCc1ccc(Cl)cc1`, the AC40 is 2.03 µM. As to `COC(=O)C1=C(C)N(Cc2ccccc2)C(=S)N[C@H]1c1ccc(Br)cc1`, the AC40 is 2.89 µM and 9.81 µM. `C[C@H](CO)N1C[C@H](C)[C@H](CN(C)C(=O)Nc2ccc3c(c2)OCO3)Oc2ncc(C#CC(C)(C)O)cc2C1=O`: the AC40 is > 15 µM (inactive). On to `CCc1nc(N2CCCCC2C)c2oc3ccccc3c2n1` (stereo unspecified), for which the AC40 was 1.65 µM. The value for `S=C(Nc1ccccc1)Nc1cc(Cl)ccc1Oc1ccccc1` was > 7.5 µM (inactive); that for `COCCNC(=O)C[C@H]1C[C@@H]2c3cc(NC(=O)C4CCC4)ccc3O[C@@H]2[C@H](CO)O1` was > 15 µM (inactive).

`Cc1c(C(=O)NC(=S)Nc2ccccc2N2CCCC2)cccc1[N+](=O)[O-]`: the AC40 was > 15 µM (inactive).

Take `CNC[C@@H]1OCCCC[C@@H](C)Oc2ccc(NC(=O)Nc3ccc4c(c3)OCO4)cc2C(=O)N([C@H](C)CO)C[C@@H]1C`: the AC40 is > 15 µM (inactive). Take `CC(C)NC(=O)N(C)C[C@H]1OCCCC[C@H](C)Oc2ccc(NC(=O)c3ccccc3)cc2C(=O)N([C@@H](C)CO)C[C@@H]1C`: the AC40 is > 15 µM (inactive). In the case of `Cc1cc(C)c2nc(N3CCN(C(=O)c4cccs4)CC3)sc2c1`, the AC40 is 2.56 µM. The same measure for `CC(C)NC(=O)Nc1ccc2c(c1)CC(=O)N([C@@H](C)CO)C[C@@H](C)[C@H](CN(C)C(=O)Nc1ccc3c(c1)OCO3)O2`: > 15 µM (inactive). On to `CC(C)NC(=O)Nc1ccc2c(c1)C(=O)N([C@@H](C)CO)C[C@@H](C)[C@@H](CN(C)C(=O)NC(C)C)OCCCC[C@@H](C)O2`, for which the AC40 is > 15 µM (inactive). On to `COCC(=O)N(C)C[C@H]1Oc2ncc(-c3ccccc3F)cc2C(=O)N([C@@H](C)CO)C[C@H]1C`, for which the AC40 was > 15 µM (inactive).

Turning to `O=C(NC(=S)Nc1ccccc1N1CCCC1)c1ccc([N+](=O)[O-])cc1`, the AC40 was 2.09 µM. Take `C[C@@H]1CN([C@@H](C)CO)C(=O)c2cc(NS(=O)(=O)c3cn(C)cn3)ccc2O[C@@H](C)CCCCO[C@@H]1CN(C)Cc1ccc(C(F)(F)F)cc1`: the AC40 is > 15 µM (inactive). For `COC(=O)C1=C(C)N(Cc2ccc(F)cc2)C(=S)NC1c1cccc(Cl)c1` (stereo unspecified), the AC40 is 2.41 µM and 3.17 µM.

As to `COc1cccc(S(=O)(=O)Nc2ccc3c(c2)[C@H]2C[C@H](CC(=O)N(C)C)O[C@@H](CO)[C@H]2O3)c1`, the AC40 was > 15 µM (inactive).

Consider `C[C@@H]1CN([C@H](C)CO)S(=O)(=O)c2ccc(C#C[C@@H](C)O)cc2O[C@@H]1CN(C)Cc1ccncc1`, for which the AC40 was > 15 µM (inactive). With `C[C@@H]1CCCCO[C@@H](CN(C)C(=O)CCCN(C)C)[C@@H](C)CN([C@H](C)CO)C(=O)c2cc(NC(=O)Cc3ccccc3)ccc2O1`, the AC40 is 14.8 µM. As for `O=C(CSc1ncnc2c1cnn2-c1cccc(Cl)c1)NCC1CCCO1` (stereo unspecified), the AC40 is > 15 µM (inactive). With `CO[C@@H]1CN(C)C(=O)c2ccc(NC(C)=O)cc2OC[C@@H](C)N(C(=O)Cc2cccnc2)C[C@H]1C`, the AC40 was > 13.5 µM (inactive).

As for `COC(=O)C1=C(C)N(Cc2ccc(F)cc2)C(=S)NC1c1cccc(Br)c1` (stereo unspecified), the AC40 is 6.51 µM. `C[C@@H]1CCCCO[C@@H](CN(C)C(=O)Nc2cccc3ccccc23)[C@@H](C)CN([C@H](C)CO)C(=O)c2cc(NS(=O)(=O)c3ccccc3)ccc2O1`: the AC40 is 14.2 µM. The value for `COC(=O)C1=C(C)N(Cc2ccc(Cl)cc2)C(=S)NC1c1ccc(F)cc1` (stereo unspecified) was 2.23 µM and 3.73 µM; that for `CCCCN1C(=S)NC[C@@H]1Cc1ccccc1` was 5.11 µM. Turning to `COc1ccccc1NC(=S)NCc1ccc(Cl)cc1`, the AC40 was 2.19 µM. The value for `Cc1cc(C)c(NC(=O)C2CCCN2CCC(C)C)c(C)c1` (stereo unspecified) was > 15 µM (inactive); that for `COC(=O)C1=C(C)N(Cc2ccccc2)C(=S)N[C@H]1c1cccc(C(F)(F)F)c1` was > 15 µM (inactive); that for `CC(C)CC#Cc1cnc2c(c1)C(=O)N([C@H](C)CO)C[C@H](C)[C@H](CN(C)C(=O)c1cccnc1)O2` was > 15 µM (inactive). The same measure for `COC(=O)C1=C(C)N(Cc2ccccc2)C(=S)NC1c1cccc(Br)c1` (stereo unspecified): 3.56 µM and > 15 µM (inactive). With `Cc1noc(C)c1NC(=O)N(C)C[C@H]1OCCCC[C@H](C)Oc2ccc(NC(=O)NC(C)C)cc2C(=O)N([C@@H](C)CO)C[C@@H]1C`, the AC40 was > 15 µM (inactive).

Regarding `COC(=O)C1=C(C)N(Cc2ccc(Cl)cc2)C(=S)NC1c1ccccc1` (stereo unspecified), the AC40 was 2.53 µM. The value for `CC(C)CC#Cc1cnc2c(c1)C(=O)N([C@H](C)CO)C[C@H](C)[C@@H](CN(C)Cc1cccc(F)c1)O2` was > 15 µM (inactive); that for `COC(=O)C1=C(C)N(Cc2ccccc2)C(=S)NC1c1ccc(Cl)cc1` (stereo unspecified) was 2.45 µM; that for `C[C@H](CO)N1C[C@H](C)[C@H](CN(C)Cc2ccc(-c3ccccc3)cc2)Oc2c(NC(=O)c3ccncc3)cccc2C1=O` was > 15 µM (inactive). On to `C[C@@H]1CCCCO[C@@H](CN(C)C(=O)Nc2ccc3c(c2)OCO3)[C@@H](C)CN([C@H](C)CO)C(=O)c2cc(NC(=O)Nc3cccc4ccccc34)ccc2O1`, for which the AC40 was > 15 µM (inactive). Regarding `COc1cccc(-c2ccc3c(c2)[C@H]2[C@H](CCN2C(=O)Cc2ccncc2)[C@H](CO)N3C)c1`, the AC40 was > 15 µM (inactive). The value for `CC(C)c1ccccc1NC(=S)NN(Cc1ccccc1)c1ccccc1` was > 15 µM (inactive). As for `Fc1ccccc1NC(=S)NCCc1cccc(Cl)c1`, the AC40 is 3.27 µM.
